Each structure is given as a SMILES string.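 These data come from cells grown in 96-well plates and exposed to compound for 48 hours at five concentrations. At the GI50, growth is halved. TGI marks complete inhibition of growth.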

Test systems include SK-MEL-5 melanoma; COLO 205 colon; OVCAR-3 ovarian; 786-0 renal; SK-MEL-2 melanoma; SF-539 CNS; SNB-19 CNS; NCI-H23 lung; MDA-MB-435; IGROV1 ovarian; HL-60(TB) leukemia.
Common to all, as to assay: growth of human tumour cells (NCI), 48 h

As to `c1csc(-c2ccc(-c3cccc4nsnc34)s2)c1`, the TGI in the assay on SK-MEL-5 melanoma, in the assay with COLO 205 colon, in the assay on OVCAR-3 ovarian, in the assay on 786-0 renal, in the assay on SK-MEL-2 melanoma and in the assay with SF-539 CNS was > 100 µM in each case. For the same molecule, the TGI in the assay on SNB-19 CNS, with NCI-H23 lung and in the assay with MDA-MB-435 was > 100 µM each time.

Turning to `COc1ccc(-c2c(C#N)c(-c3ccc(C)cc3)n(NS(=O)(=O)c3ccc(C)cc3)c(=O)c2C#N)cc1`, the TGI in the assay on SK-MEL-5 melanoma was 58.3 µM; in the assay with COLO 205 colon, > 100 µM; in the assay with 786-0 renal it was > 100 µM; in the assay on SK-MEL-2 melanoma it was > 100 µM; with SF-539 CNS it was > 100 µM; in the assay with SNB-19 CNS it was > 100 µM. Moreover, the TGI with IGROV1 ovarian and in the assay on MDA-MB-435 was > 100 µM each time.

As for `CCOC(=O)CSc1c(C(=O)OCC)c(=O)n(-c2ccccc2)c(=S)n1-c1ccccc1`, the TGI in the assay with SK-MEL-5 melanoma, in the assay on COLO 205 colon, with OVCAR-3 ovarian, in the assay on 786-0 renal, with SK-MEL-2 melanoma and in the assay on SNB-19 CNS was > 100 µM each time. Moreover, the TGI with NCI-H23 lung was > 100 µM; in the assay on IGROV1 ovarian, > 100 µM; in the assay with HL-60(TB) leukemia it was 47.4 µM; in the assay on MDA-MB-435, > 100 µM.

Take `CCC(C(=O)O)c1ccc(OC)cc1` (centres undefined): the TGI with SK-MEL-5 melanoma, in the assay on COLO 205 colon, with OVCAR-3 ovarian, in the assay with SK-MEL-2 melanoma, in the assay with SF-539 CNS and in the assay on SNB-19 CNS was > 100 µM in each case. Moreover, the TGI in the assay on NCI-H23 lung, with IGROV1 ovarian and with HL-60(TB) leukemia was > 100 µM each time.

As to `Cc1ccc(Cl)c2[nH]c(-c3ccccc3)cc(=O)c12`, the TGI with SK-MEL-5 melanoma, in the assay on COLO 205 colon, in the assay with OVCAR-3 ovarian, in the assay on 786-0 renal, with SK-MEL-2 melanoma and in the assay on NCI-H23 lung was > 100 µM throughout. For the same molecule, the TGI with IGROV1 ovarian, with HL-60(TB) leukemia and with MDA-MB-435 was > 100 µM in each case.

Turning to `CC1(C)OC(=O)N(c2ccccc2)C12C=Cc1cc([N+](=O)[O-])cc([N+](=O)[O-])c1O2` (centres undefined), the TGI with SK-MEL-5 melanoma, in the assay on COLO 205 colon, in the assay with OVCAR-3 ovarian, in the assay on 786-0 renal, in the assay on SK-MEL-2 melanoma and in the assay with SNB-19 CNS was > 100 µM throughout. Further, the TGI in the assay on NCI-H23 lung, with IGROV1 ovarian, in the assay on HL-60(TB) leukemia and in the assay with MDA-MB-435 was > 100 µM in each case.

On to `COc1ccc(C2CC(c3c(O)ccc4ccccc34)=NN2C(C)=O)cc1OC` (centres undefined), for which the TGI in the assay on SK-MEL-5 melanoma is 71.8 µM; with COLO 205 colon, 42.8 µM; in the assay with OVCAR-3 ovarian it was 69.6 µM; in the assay on 786-0 renal it was > 100 µM; with SK-MEL-2 melanoma, 52.1 µM; in the assay with SF-539 CNS, 48.9 µM. The TGI in the assay on NCI-H23 lung is 79 µM; in the assay on IGROV1 ovarian, > 100 µM; with MDA-MB-435, 69.2 µM.

As to `S=C1Nc2ccccc2SC1c1ccccc1` (centres undefined), the TGI in the assay with SK-MEL-5 melanoma, with COLO 205 colon, in the assay with OVCAR-3 ovarian, in the assay with 786-0 renal, in the assay with SNB-19 CNS and with NCI-H23 lung was > 100 µM each time. The TGI in the assay on IGROV1 ovarian, in the assay with HL-60(TB) leukemia and with MDA-MB-435 was > 100 µM each time.

For the molecule `CCOC(=O)c1cn2c(n1)sc1cccc(C)c12`, the TGI with SK-MEL-5 melanoma, in the assay on COLO 205 colon, in the assay with OVCAR-3 ovarian, with 786-0 renal, in the assay on SF-539 CNS and in the assay on SNB-19 CNS was > 100 µM in each case. Also, the TGI in the assay on NCI-H23 lung and with IGROV1 ovarian was > 100 µM throughout.

Turning to `CC(=O)O[C@@H]1[C@H](C(C)C)[C@@H](OC(C)=O)C/C(C)=C/CC[C@]2(C)O[C@@H]12`, the TGI in the assay on SK-MEL-5 melanoma, with COLO 205 colon, with OVCAR-3 ovarian, in the assay with 786-0 renal, in the assay on SK-MEL-2 melanoma and in the assay on SNB-19 CNS was > 100 µM in each case. In addition, the TGI with NCI-H23 lung, with IGROV1 ovarian, in the assay on HL-60(TB) leukemia and in the assay on MDA-MB-435 was > 100 µM throughout.

Take `COc1cc2nc3n(c(=O)c2cc1OC)-c1ccc([N+](=O)[O-])cc1C3=O`: the TGI in the assay with SK-MEL-5 melanoma, with COLO 205 colon, in the assay with OVCAR-3 ovarian, in the assay on 786-0 renal, with SK-MEL-2 melanoma and in the assay on SF-539 CNS was > 100 µM each time. In addition, the TGI is > 100 µM in the assay on SNB-19 CNS, > 100 µM with NCI-H23 lung, > 100 µM in the assay with IGROV1 ovarian and 40.1 µM with MDA-MB-435.

As for `Cc1cn2c(/C=N/N=C(N)N)c(-c3cccc([N+](=O)[O-])c3)nc2s1`, the TGI in the assay on SK-MEL-5 melanoma was found to be 3.13 µM; with OVCAR-3 ovarian, 2.51 µM; in the assay with 786-0 renal, 7.08 µM; in the assay on SF-539 CNS, 4.05 µM; in the assay with NCI-H23 lung it was 5.11 µM; in the assay with IGROV1 ovarian, 19.7 µM. For the same molecule, the TGI with HL-60(TB) leukemia came to 3.86 µM; in the assay on MDA-MB-435 it was 3.21 µM.

On to `O=C1c2ccccc2-c2c1c1ccccc1c(=O)n2CCNCCNCCNCCn1c2c(c3ccccc3c1=O)C(=O)c1ccccc1-2`, for which the GI50 in the assay on COLO 205 colon is 1.76 µM; in the assay with OVCAR-3 ovarian, 1.16 µM; in the assay on SF-539 CNS, 0.273 µM; in the assay on SNB-19 CNS, 2.35 µM; in the assay on HL-60(TB) leukemia, 1.8 µM; with MDA-MB-435, 0.993 µM. Besides, the TGI in the assay with COLO 205 colon was > 20.3 µM; in the assay with OVCAR-3 ovarian, 4.91 µM; in the assay on SF-539 CNS, 1.58 µM; with SNB-19 CNS, > 100 µM; in the assay on MDA-MB-435 it was 4.7 µM.

`N#CC1(C#N)N[C@@H](c2ccsc2)[C@H]2C(=O)N(c3ccccc3)C(=O)[C@H]21`: the TGI in the assay with SK-MEL-5 melanoma, with COLO 205 colon, with OVCAR-3 ovarian, in the assay on 786-0 renal, with SK-MEL-2 melanoma and in the assay on NCI-H23 lung was > 100 µM throughout. The values for the TGI with IGROV1 ovarian, in the assay on HL-60(TB) leukemia and in the assay on MDA-MB-435 were > 100 µM, 42 µM and > 100 µM, respectively.
